Data from patent US6261760A, “Regulation of the cell cycle by sterols” (priority 1999, dated 2001).
Entries after “also recorded” stand apart in the source; their conditions may differ. Where two headings read alike, the source gives them in different places. *1 amine or outer side, *2 acyl side, *3 side chain or, on linkers, in order; H or OH if unused. Where a SMILES comes first, the peptide text is derived from it. Bridges are numbered along the chain shown (N, C = ends). Roman numbers before positions name the chains, in order. [ ]: non-standard residue; d: D form. Actinocin(9to1) = Cc1c2oc3c(C)ccc(C(=O)[*:1])c3nc-2c(C(=O)[*:2])c(N)c1=O; NMeV = CN[C@H](C(=O)O)C(C)C; Nle = CCCC[C@H](N)C(=O)O; Sar = CNCC(=O)O

Columns and labels:
[1] = tested on: LDL FC uptake by fibroblast monolayers; assay: Transfer of LDL-derived 3H-FC into fibroblast monolayers with metabolic inhibitors (Example 2); type: cell-based, human; parameters: Emax: dose or concentration left out as unconfirmed; settings: for effect on uptake of 3H-FC from LDL: brefeldin A, vinblastine, taxol, nocodazole, NEM 2 mM; for inhibition at higher concentration: 100 mM (monensin: up to 100 mM)
[2] = tested on: intracellular FC transport to the cell surface in fibroblast monolayers; assay: Transfer of intracellular 3H-FC to the cell surface (cholesterol oxidase); type: cell-based, human; settings: in words
Description: This assay utilized the finding (see Example 1) that only FC in the caveolar fraction of the plasma membrane fraction was modified by cholesterol oxidase in unfixed fibroblast monolayers.
The rate at which intracellular LDL-derived ^3 H-FC became accessible at the cell surface was measured as follows. Cell monolayers were labeled with ^3 H-FC LDL under the conditions shown for each experiment. Unbound and adsorbed LDL were removed as described above. In some experiments metabolic inhibitors of different transport steps were then added for 30 min at 15° C. […] Cholesterol oxidase (Boehringer-Manheim, Indianapolis, Ind., USA) was added in PBS to a final concentration of 1 U ml^-1. Incubation was for 4 h at 0° C. The cells were washed with ice-cold PBS, and extracted with 0.1 N NAOH. Cell total lipid was extracted with chloroform-methanol (1:1 v/v). […] .
Fibroblast monolayers were prelabeled with FC-labeled LDL for 2 min at 31° C. Medium and surface-bound labeled LDL were removed as described above. The cells were incubated with inhibitors of intracellular transport for 30 min at 15° C. Movement of FC label to the cell surface remained negligible (FIG. 11). The cells were brought to 31° C. for 15 min, and then cooled on wet ice. ^3 H-FC transfer to the cell surface (in the presence and absence of inhibitor) was assayed with cholesterol oxidase as described above.

[3] = tested on: LDL-receptor deficient cells (GM 2000 line); assay: FC transfer from LDL to LDL receptor-deficient cells (GM 2000); type: cell-based
[4] = tested on: LDL FC uptake by fibroblast monolayers; assay: Effects of metabolic inhibitors on uptake of 3H-cholesterol from LDL (Example 1); settings: for effect on LDL FC uptake: in words
caveolin mRNA = assay: Caveolin mRNA levels (Northern blot)
[5] = tested on: LDL FC uptake by fibroblast monolayers; settings: for effect on LDL FC uptake: in words
fibroblasts = settings: cited from earlier work
fibroblast monolayers = assay: FC efflux from fibroblast monolayers (3H-FC label); type: cell-based, human; settings: in words
Description: Fibroblast monolayers were equilibrated with ^3 H-FC-labeled native plasma or with isolated ^3 H-labeled LDL, as specified for each experiment. Following incubation, the dishes were washed with albumin-complete PBS and then (×4) with complete PBS. They were then incubated for 3 min with unlabeled plasma or lipoprotein fractions and the rate of appearance of radioactivity in the medium determined. Samples of medium ([…]) were immediately chilled in ice water and centrifuged (10 min, 2000×g) at 0-2° C. ^3 H-cholesterol radioactivity in the supernatant was either assayed directly, or fractionated by agarose gel electrophoresis. FC efflux was linear as previously reported (Kawano et al., Biochemistry, 32: 5025-5028 (1993)).
For electrophoresis, […] portions of labeled medium were added to strips of 0.75% w/v agarose in 0.025 M barbital buffer (pH 8.6) and separated as previously described (Fielding et al., Biochemistry, 30: 8551-8557 (1991)). 2.5 mm gel fractions were then collected, and radioactivity measured. The location of major lipoprotein classes was determined from strips run simultaneously with whole native plasma equilibrated (60 min, 37° C.) With ^3 HFC.
Rates of FC influx and efflux between medium and fibroblast monolayers preincubated for 24 h with 7-80% native human plasma in DMEM were determined. Cells equilibrated in 80% compared to 7% v/v plasma contained 35-40% more total cholesterol but only 10-15% more FC. In 50% v/v plasma, cholesteryl ester levels were lower than in 80% plasma but FC levels were almost the same. Rates of transfer of FC between the cells and their extracellular medium were determined for each plasma dilution. […] was measured as the rate of transfer of ^3 H-FC radioactivity from labeled native plasma to unlabeled cells. […] was determined as the rate of transfer of radioactivity from uniformly labeled cells to unlabeled native plasma medium.

[6] = tested on: normal human skin fibroblasts; assay: Cell synchronization by aphidicolin (flow cytometry); type: cell-based
Description: Normal human skin fibroblasts were cultured in 10% fetal calf serum in Dulbecco's modified Eagles medium (DMEM). […] After 3 days, dishes were incubated with aphidicolin (4 μg/ml)(CalBiochem, San Diego, Calif.) to inhibit DNA polymerase, leading to cell arrest immediately before S-phase (Tobey et al. (1988) Expt. Cell Res. […]). After 24 h incubation with aphidicolin, the inhibitor was removed for a further 12 h, then restored for a `double block` at 8 μg/ml for a further 24 h (Sourlingas et al. (1996) Anal. Biochem. 234:104-107). After final removal from inhibitor into 10% serum-DME medium, the cells during incubation over the next 32 h at 37° C. […]
After 3 days, dishes were incubated with aphidicolin (4 μg/ml)(CalBiochem, San Diego, Calif.) to inhibit DNA polymerase, leading to cell arrest immediately prior to DNA synthesis (S-phase) (Tobey et al. (1988) Exptl. Cell Res. 179: 400-416, Sourlingas and Sekeri-Pataryas (1996) Anal. Biochem. 234: 104-107.). […] Cell synchronization was assessed by flow cytometry using the cell permeable stain Hoechst 33342 (Molecular Probes, Eugene, Oreg.)(Haas-Kogan et al. (1995) EMBO J. 14: 461-472.). […] Samples were analysed on a FACStar Plus (Becton Dickinson, San Jose, Calif.). Data was analysed using Lysis II software (Becton Dickinson). […]

COC(=O)Nc1nc2ccc(C(=O)c3cccs3)cc2[nH]1 [Nocodazole]
effect on uptake of 3H-FC from LDL [1]: without effect | effect on transport of intracellular 3H-FC to the cell surface [2]: reduced

CC[C@@]1([C@@H]2O[C@@H]([C@H]3O[C@@](O)(CO)[C@H](C)C[C@@H]3C)C[C@@H]2C)CC[C@H]([C@]2(C)CC[C@]3(C[C@H](O)[C@@H](C)[C@@H]([C@@H](C)[C@@H](OC)[C@H](C)C(=O)O)O3)O2)O1 [Monensin]
effect on selective uptake of FC from LDL in GM2000 cells ([3]; in words): Comparable results | inhibition at higher concentration [1]: no increase in inhibition | effect on uptake of 3H-FC from LDL [1]: effective in reducing the selective uptake of FC from LDL

C=C1C(C)C2C(Cc3ccccc3)NC(=O)C23C(OC(C)=O)/C=C/C(C)(O)C(=O)C(C)CC=CC3C1O (stereo not drawn) [Cytochalasin D]
inhibition at higher concentration ([1]; listed as Cytochalasin): No greater inhibition | inhibition at higher concentration ([1]; listed as cytochalasin D): no increase in inhibition | effect on transport of intracellular 3H-FC to the cell surface [2]: no effect

[NH4+].[O]=[V](=[O])[O-] [NH4 -vanadate]
effect on LDL FC uptake [4]: without effect

COC1=CC(C)=CC(C)C(O)C(C)CC(C)=CC=CC(OC)C(C(C)C(O)C(C)C2(O)CC(O)C(C)C(C(C)C)O2)OC1=O (single isomer, unassigned) [Bafilomycin A1]
Emax ([1]; Homo sapiens, Fibroblast, read-out: maximal effect on LDL-FC uptake): 30%

Cc1c2oc3c(C)ccc(C(=O)N[C@@H]4C(=O)N[C@H](C(C)C)C(=O)N5CCC[C@H]5C(=O)N(C)CC(=O)N(C)[C@@H](C(C)C)C(=O)O[C@@H]4C)c3nc-2c(C(=O)N[C@@H]2C(=O)N[C@H](C(C)C)C(=O)N3CCC[C@H]3C(=O)N(C)CC(=O)N(C)[C@@H](C(C)C)C(=O)O[C@@H]2C)c(N)c1=O [actinomycin, actinomycin D] (I: T[dV]P[Sar][NMeV] / II: T[dV]P[Sar][NMeV]; ester I:1-I:C, II:1-II:C; linker I:N-II:N via Actinocin(9to1))
t1/2 of decrease in caveolin mRNA levels (caveolin mRNA; actinomycin 2.5 μg ml^-1, activated and baseline cells, n=4): 8.0 ± 1 h | caveolin mRNA level relative to total RNA (caveolin mRNA; baseline cells, 8 h with actinomycin, 37° C.): 0.52

C[C@H]1CCC/C=C/[C@@H]2C[C@H](O)C[C@H]2[C@H](O)/C=C/C(=O)O1 [Brefeldin A]
effect on uptake of 3H-FC from LDL [1]: without effect | effect on transport of intracellular 3H-FC to the cell surface [2]: unaffected

[N-]=[N+]=[N-].[Na+] [Na-azide]
effect on LDL FC uptake [4]: without effect

CC(=O)O[C@H]1C(=O)[C@@]2(C)[C@H]([C@H](OC(=O)c3ccccc3)[C@]3(O)C[C@H](OC(=O)[C@H](O)[C@@H](NC(=O)c4ccccc4)c4ccccc4)C(C)=C1C3(C)C)[C@]1(OC(C)=O)CO[C@@H]1C[C@@H]2O [taxol]
effect on uptake of 3H-FC from LDL [1]: without effect

CCCC[C@@H](C=O)NC(=O)[C@H](CC(C)C)NC(=O)[C@H](CC(C)C)NC(C)=O [ALLN] (Ac-Leu-Leu-[Nle]-aldehyde)
effect on caveolin mRNA levels / caveolin gene expression (caveolin mRNA; 25 μM ALLN, 7% or 80% v/v plasma): superinhibited caveolin mRNA levels regardless of LDL-FC; also recorded: superinhibited the expression of the caveolin gene; also recorded: strongly inhibited caveolin mRNA levels even below the level expressed in cells equilibrated in 7% v/v plasma; also recorded: completely prevented the activation of caveolin mRNA levels observed in 80% v/v plasma

C=C[C@@]1(C)CC(=O)[C@]2(O)[C@@]3(C)[C@@H](O)CCC(C)(C)[C@@H]3[C@H](O)[C@H](OC(C)=O)[C@@]2(C)O1 [Forskolin]
effect on LDL FC uptake [5]: no effect | effect on transfer of newly-synthesized cholesterol to plasma membrane (fibroblasts): stimulated

O=[N+]([O-])[O-].[K+] [KNO3]
initial rate of efflux of FC from prelabeled cells to plasma (fibroblast monolayers): increased several-fold | effect on transport of intracellular 3H-FC to the cell surface [2]: inhibited the return of FC to the cell surface, but less effectively than did nocodazole | inhibition of the uptake of free cholesterol from LDLs ([4]; FIG. 8): > 80% | time course of inhibition of LDL FC uptake ([4]; NEM: first 10-15 min, KNO3: 50 mM, data not shown): comparable time course

CC(C)Cn1c(=O)n(C)c(=O)c2[nH]cnc21 [IBMX, isobutyl methylxanthine]
activity ([5]; fibroblast monolayers, 60 min): 111% | effect on LDL FC uptake [5]: no effect | effect on transfer of newly-synthesized cholesterol to plasma membrane (fibroblasts): stimulated

C[C@@]1(CO)[C@H](O)CC[C@@]2(C)[C@H]1CC[C@H]1C[C@@H]3C[C@@]12CC[C@]3(O)CO [aphidicolin]
cells synchronized to enter S-phase ([6]; Example 4, following removal of inhibitor): ~ 85% | cells in synchrony at the beginning of S phase ([6]; Example 5, 4 then 8 μg/ml aphidicolin): 83.9±3.1%

heparin
inhibition of LDL FC influx ([3]; GM 2000 cells, 0.1 mg/ml heparin, LDL 150 Fg FC ml^-1, 10 min): Approximately 80% | inhibition of LDL FC influx ([4]; normal fibroblasts, 0.1 mg/ml heparin, LDL 150 Fg FC ml^-1, 10 min): Approximately 80%

CCN(CC)CCCC(C)Nc1ccnc2cc(Cl)ccc12 (stereo not drawn) [Chloroquine]
effect on LDL FC uptake [4]: no effect

CC[C@]1(O)C[C@@H]2CN(CCc3c([nH]c4ccccc34)[C@@](C(=O)OC)(c3cc4c(cc3OC)N(C)[C@H]3[C@@](O)(C(=O)OC)[C@H](OC(C)=O)[C@]5(CC)C=CCN6CC[C@]43[C@@H]65)C2)C1 [Vinblastine]
effect on uptake of 3H-FC from LDL [1]: without effect | effect on transport of intracellular 3H-FC to the cell surface [2]: unaffected
